Values quoted from earlier work as cited in patent publication US6642243B1, “Migraine medicine and method for treating same” (priority 1999, dated 2003).

Tests used:
[1] = test system: cerebral blood flow; conditions: in humans
[2] = test system: migraine patients; conditions: pretreatment with 2 mg/kg; p<0.05
[3] = test system: individuals who take these agents; conditions: treatment and prophylaxis of migraines

**Q.** For `Cn1c(=O)c2c(ncn2C)n(C)c1=O` [Caffeine, caffeine], which cerebral blood flow [1] is on record?
**A.** Its cerebral blood flow is “reduce cerebral blood flow”.

**Q.** For `CN[C@@H](C)[C@@H](O)c1ccccc1` [Pseudoephedrine, pseudoephedrine], which “effects of increased postural hypotension seen in migraine patients versus normal patients” value [2] is on record?
**A.** Its value is “abolished”.

**Q.** What about the “effects of lower blood pressure after sustained handgrip seen in migraine patients versus normal patients” value [2] of the same compound?
**A.** Its value is “abolished”.

**Q.** For `C[C@@H](CO)NC(=O)[C@@H]1C=C2c3cccc4[nH]cc(c34)C[C@H]2N(C)C1` [ergonovine], which “significant toxicity, share of the individuals who take these agents” value [3] is on record?
**A.** Its value is about 40%.

**Q.** Which “significant toxicity, share of the individuals who take these agents” value [3] does the source give for `CC[C@@H](CO)NC(=O)[C@@H]1C=C2c3cccc4c3c(cn4C)C[C@H]2N(C)C1` [methysergide] here?
**A.** Its value is about 40%.
